Values quoted from earlier work as cited in patent publication EP3731827B1, “ORAL PHARMACEUTICAL COMPOSITION COMPRISING POSACONAZOLE” (Sanovel Ilac Sanayi ve Ticaret A.S., priority 2017, dated 2019).
Read-outs that look alike come from different tables or passages of the source.

solubility (at pH 6.4 or higher): less than 1 µg/ml
solubility (in the stomach): about 0.8 mg/ml
SMILES: CC[C@@H]([C@H](C)O)n1ncn(-c2ccc(N3CCN(c4ccc(OC[C@@H]5CO[C@@](Cn6cncn6)(c6ccc(F)cc6F)C5)cc4)CC3)cc2)c1=O [posaconazole, 4-[4-[4-[4-[[(3R,5R)-5-(2,4-difluorophenyl)-5-(1,2,4-triazol-1-ylmethyl)oxolan-3-yl]methoxy]phenyl]piperazin-1-yl]phenyl]-2-[(2S,3S)-2-hydroxypentan-3-yl]-1,2,4-triazol-3-one]
